In data set [1] the target is T1, human GIP receptor (Homo sapiens, UniProt P48546).
T1 construct: host or cells: COS-7, transient transfection (calcium phosphate), cDNA in pCMV-Script
T1 sequence (P48546 22-466): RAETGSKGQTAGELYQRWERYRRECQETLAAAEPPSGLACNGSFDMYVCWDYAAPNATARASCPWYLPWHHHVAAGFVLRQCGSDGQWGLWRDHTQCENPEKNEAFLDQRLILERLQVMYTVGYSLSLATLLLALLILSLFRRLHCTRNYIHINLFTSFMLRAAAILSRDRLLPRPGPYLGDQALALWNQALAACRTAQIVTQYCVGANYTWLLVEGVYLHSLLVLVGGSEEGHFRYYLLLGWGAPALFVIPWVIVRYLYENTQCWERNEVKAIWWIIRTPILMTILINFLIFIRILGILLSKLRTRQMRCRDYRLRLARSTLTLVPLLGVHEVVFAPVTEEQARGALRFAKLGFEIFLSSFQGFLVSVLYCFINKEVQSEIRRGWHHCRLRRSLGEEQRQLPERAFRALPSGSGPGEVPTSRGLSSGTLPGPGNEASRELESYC
The data set can be described thus: cAMP accumulation assay, antagonism of a GIP-mediated cAMP response (50-80% of max). The data set is classed as cell-based. Conditions: for cAMP - antagonisme fold (paired): fold vs GIP(3-30)NH2, Table 3b; for IC50: transiently transfected COS-7 cells, Table 1 and text, read-out: cAMP antagonism nM (IC50, antagonistic potency); for Fold change of IC50 versus GIP(5-30)NH2: fold change of IC50 from GIP(5-30)NH2. The procedure:
The day after, the cells were washed twice with Hepes buffered saline (HBS) buffer and incubated with HBS and 1 mM 3-isobutyl-1-methylxanthine (IBMX) for 30 min at 37° C. […] The HitHunter™ cAMP XS assay (DiscoveRx) was carried out according to the manufacturer's instructions.

The target of data set [2] is T1, human GIP receptor. The data set can be described thus: cAMP accumulation assay, agonism (ligand alone). It counts as cell-based. The following applies: COS-7 cells, Table 1; for Emax: COS-7, intrinsic cAMP activity.
For data set [3], the target named is T1, human GIP receptor. The data set can be described thus: 125I-human GIP competition binding assay, in the presence and absence of 2% HSA.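 On all read-outs here: nonspecific binding taken as radioligand bound to untransfected cells, IC50 obtained from nonlinear regression fits.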 Conditions: for Binding fold (paired): fold decrease in affinity compared to GIP(3-30)NH2; for Fold change in affinity, IC50 (plus HSA)/IC50 (minus HSA): presence vs absence of 2% HSA, proxy for albumin binding; for Fold change HSA (2%)/Casein (0.1%): IC50 (plus HSA)/IC50 (minus HSA); for Binding (+/−HSA) Fold: fold change +HSA/−HSA; for Ki: presence of 2% HSA.
Protocol: Transient transfection of the COS-7 cells for cAMP accumulation and competition binding was performed using the calcium phosphate precipitation method with the addition of chloroquine^46-47.
Transient transfected COS-7 cells expressing the human GIP receptor were seeded in clear 96-well plates the day after transfection using a number of cells/well that obtained 5-10% specific binding of the added radioactive ligand. The following day, cells were assayed by competition binding for 3 h at 4° C. using 15-40 pM 125 I-human GIP as well as increasing concentrations unlabeled ligand in 50 mM Hepes buffer (pH 7.2) in the presence and absence of 2% HSA. After incubation, the cells were washed twice in ice-cold binding buffer (+/−2% HSA) and lysed using 200 mM NaOH with 1% SDS for 30 min. Nonspecific binding was determined as the binding of radioactive ligand to untransfected cells.
IC50, EC50, and Ki values were determined by nonlinear regression. […] Ki values were based on the formula for one class of binding sites in homologous competition binding studies and the Cheng Prussoffs formula, respectively (DeBlasi et al., 1989). To determine the HSA binding potential, the fold change in affinity (as determined by IC50) was calculated as IC50 (plus HSA)/IC50 (minus HSA).

The mark [4] stands for this setting: 0.1% casein, no HSA, Table 3b, read-out: Binding logIC50 0.1% casein (converted).
The mark [5] stands for this setting: Table 3b, initial data, read-out: Binding IC50.
Where [6] appears, read: heterologous competition binding, transiently transfected COS-7 cells expressing the human GIP receptor, read-out: Binding.
Where [7] appears, read: binding in 0.1% casein (absence of HSA), log value, read-out: logIC50 0.1% casein (converted).
Setting [8] is: binding in presence of 2% HSA, read-out: logIC50 2% HSA (converted).

The structures appear in SMILES notation. Peptide text beside a SMILES is read from it. * marks the point of attachment. C16 diacid = O=C(O)CCCCCCCCCCCCCCC(=O)*; Stearoyl = CCCCCCCCCCCCCCCCCC(=O)*

Consider `CC[C@H](C)[C@H](NC(=O)[C@H](CO)NC(=O)[C@H](Cc1ccc(O)cc1)NC(=O)[C@H](CC(=O)O)NC(=O)[C@H](CO)NC(=O)[C@@H](NC(=O)[C@H](Cc1ccccc1)NC(=O)[C@@H](NC(=O)CNC(=O)[C@@H](N)CCC(=O)O)[C@@H](C)O)[C@@H](C)CC)C(=O)N[C@@H](C)C(=O)N[C@@H](CCSC)C(=O)N[C@@H](CC(=O)O)C(=O)N[C@@H](CCCCN)C(=O)N[C@H](C(=O)N[C@@H](CCCCNC(=O)CCCCCCCCCCCCCCC(=O)O)C(=O)N[C@@H](CCC(N)=O)C(=O)N[C@@H](CCC(N)=O)C(=O)N[C@@H](CC(=O)O)C(=O)N[C@@H](Cc1ccccc1)C(=O)N[C@H](C(=O)N[C@@H](CC(N)=O)C(=O)N[C@@H](Cc1c[nH]c2ccccc12)C(=O)N[C@@H](CC(C)C)C(=O)N[C@@H](CC(C)C)C(=O)N[C@@H](C)C(=O)N[C@@H](CCC(N)=O)C(=O)N[C@@H](CCCCN)C(N)=O)C(C)C)[C@@H](C)CC` [AT158, [hGIP(3-30)NH2[H18K]-C16diacid/18]] (H-EGTFISDYSIAMDKIK(C16 diacid)QQDFVNWLLAQK-NH2; N-terminus assumed), for which, on human GIP receptor [1], the “cAMP - antagonisme fold (paired)” value turned out to be 0.1 fold. Moreover, the IC50 at human GIP receptor [1] was 5 nM; on human GIP receptor [3] (setting [4]) it was 7.9 nM; on human GIP receptor [3] (2% HSA, Table 3b, read-out: Binding logIC50 2% HSA (converted)) it was 16 nM; at human GIP receptor [3] (setting [5]) it was 7.9 nM. Further, on human GIP receptor [2], the Emax came to 6%. Besides, the “Binding fold (paired)” value at human GIP receptor [3] (Table 3b) turned out to be 1 fold. The “Fold change in affinity, IC50 (plus HSA)/IC50 (minus HSA)” value (from here on “Fold change in affinity … (minus HSA)”) on human GIP receptor [3] is recorded as 2.0 fold.
Consider `CCCCCCCCCCCCCCCCCC(=O)NCCCC[C@H](NC(=O)[C@@H](NC(=O)[C@H](CCCCN)NC(=O)[C@H](CC(=O)O)NC(=O)[C@H](CCSC)NC(=O)[C@H](C)NC(=O)[C@@H](NC(=O)[C@H](CO)NC(=O)[C@H](Cc1ccc(O)cc1)NC(=O)[C@H](CC(=O)O)NC(=O)[C@H](CO)NC(=O)[C@@H](NC(=O)[C@H](Cc1ccccc1)NC(=O)[C@@H](NC(=O)CNC(=O)[C@@H](N)CCC(=O)O)[C@@H](C)O)[C@@H](C)CC)[C@@H](C)CC)[C@@H](C)CC)C(=O)N[C@@H](CCC(N)=O)C(=O)N[C@@H](CCC(N)=O)C(=O)N[C@@H](CC(=O)O)C(=O)N[C@@H](Cc1ccccc1)C(=O)N[C@H](C(=O)N[C@@H](CC(N)=O)C(=O)N[C@@H](Cc1c[nH]c2ccccc12)C(=O)N[C@@H](CC(C)C)C(=O)N[C@@H](CC(C)C)C(=O)N[C@@H](C)C(=O)N[C@@H](CCC(N)=O)C(=O)N[C@@H](CCCCN)C(N)=O)C(C)C` [AT160, [hGIP(3-30)NH2[H18K]-C18/18]] (H-EGTFISDYSIAMDKIK(Stearoyl)QQDFVNWLLAQK-NH2; N-terminus assumed), for which the “cAMP - antagonisme fold (paired)” value at human GIP receptor [1] was 0.7 fold. Besides, the IC50 is 38 nM on human GIP receptor [1], 48.8 nM on human GIP receptor [3] (setting [4]), 48.8 nM on human GIP receptor [3] (setting [5]) and 49 nM at human GIP receptor [3] (setting [6]). The maximal response (Emax) at human GIP receptor [2] was found to be 13%. The EC50 on human GIP receptor [2] (read-out: cAMP agonism nM (EC50)) stood at 962 nM. In addition, the “Binding fold (paired)” value on human GIP receptor [3] (Table 3b) was found to be 6 fold. Further, the “Fold change in affinity … (minus HSA)” value at human GIP receptor [3] turned out to be 3.6 fold.
In the case of `CC[C@H](C)[C@H](NC(=O)[C@H](CO)NC(=O)[C@H](Cc1ccc(O)cc1)NC(=O)[C@H](CC(=O)O)NC(=O)[C@H](CO)NC(=O)[C@@H](NC(=O)[C@H](CCCCNC(=O)CCCCCCCCCCCCCCC(=O)O)NC(=O)[C@@H](N)[C@@H](C)O)[C@@H](C)CC)C(=O)N[C@@H](C)C(=O)N[C@@H](CCSC)C(=O)N[C@@H](CC(=O)O)C(=O)N[C@@H](CCCCN)C(=O)N[C@H](C(=O)N[C@@H](Cc1c[nH]cn1)C(=O)N[C@@H](CCC(N)=O)C(=O)N[C@@H](CCC(N)=O)C(=O)N[C@@H](CC(=O)O)C(=O)N[C@@H](Cc1ccccc1)C(=O)N[C@H](C(=O)N[C@@H](CC(N)=O)C(=O)N[C@@H](Cc1c[nH]c2ccccc12)C(=O)N[C@@H](CC(C)C)C(=O)N[C@@H](CC(C)C)C(=O)N[C@@H](C)C(=O)N[C@@H](CCC(N)=O)C(=O)N[C@@H](CCCCN)C(N)=O)C(C)C)[C@@H](C)CC` [AT168, [hGIP(5-30)NH2[F6K]-C16diacid/6]], the “Fold change of IC50 versus GIP(5-30)NH2” value on human GIP receptor [1] came out at 5.3. This compound registered a maximum response (Emax) at human GIP receptor [2] of 0%. Besides, the “Fold change HSA (2%)/Casein (0.1%)” value at human GIP receptor [3] worked out at 2.0. Also, the IC50 is 50.1 nM at human GIP receptor [3] (setting [7]), 100 nM on human GIP receptor [3] (setting [8]) and 48 nM at human GIP receptor [3] (setting [6]). Moreover, the “Binding (+/−HSA) Fold” value at human GIP receptor [3] is recorded as 2.3.
With `CC[C@H](C)[C@H](NC(=O)[C@H](CO)NC(=O)[C@H](Cc1ccc(O)cc1)NC(=O)[C@H](CC(=O)O)NC(=O)[C@H](CO)NC(=O)[C@H](CCCCNC(=O)CCCCCCCCCCCCCCC(=O)O)NC(=O)[C@H](Cc1ccccc1)NC(=O)[C@@H](N)[C@@H](C)O)C(=O)N[C@@H](C)C(=O)N[C@@H](CCSC)C(=O)N[C@@H](CC(=O)O)C(=O)N[C@@H](CCCCN)C(=O)N[C@H](C(=O)N[C@@H](Cc1c[nH]cn1)C(=O)N[C@@H](CCC(N)=O)C(=O)N[C@@H](CCC(N)=O)C(=O)N[C@@H](CC(=O)O)C(=O)N[C@@H](Cc1ccccc1)C(=O)N[C@H](C(=O)N[C@@H](CC(N)=O)C(=O)N[C@@H](Cc1c[nH]c2ccccc12)C(=O)N[C@@H](CC(C)C)C(=O)N[C@@H](CC(C)C)C(=O)N[C@@H](C)C(=O)N[C@@H](CCC(N)=O)C(=O)N[C@@H](CCCCN)C(N)=O)C(C)C)[C@@H](C)CC` [AT169, [hGIP(5-30)NH2[I7K]-C16diacid/7]], at human GIP receptor [1], the “Fold change of IC50 versus GIP(5-30)NH2” value turned out to be 3.0 and the IC50 was 37 nM. This compound also registered an Emax at human GIP receptor [2] of 0%. Besides, on human GIP receptor [3], the “Fold change HSA (2%)/Casein (0.1%)” value was 5.8; the “Binding (+/−HSA) Fold” value was determined as 4.8; the inhibitory constant (Ki) was found to be 126 nM; the “Fold change in affinity … (minus HSA)” value is recorded as 5.8 fold. Moreover, on human GIP receptor [3] (setting [7]), the IC50 was 31.6 nM. In addition, the IC50 on human GIP receptor [3] (setting [8]) is 166 nM. Besides, the IC50 on human GIP receptor [3] (setting [6]) stood at 28 nM.
`CC[C@H](C)[C@H](NC(=O)[C@H](CO)NC(=O)[C@H](Cc1ccc(O)cc1)NC(=O)[C@H](CC(=O)O)NC(=O)[C@H](CCCCNC(=O)CCCCCCCCCCCCCCC(=O)O)NC(=O)[C@@H](NC(=O)[C@H](Cc1ccccc1)NC(=O)[C@@H](N)[C@@H](C)O)[C@@H](C)CC)C(=O)N[C@@H](C)C(=O)N[C@@H](CCSC)C(=O)N[C@@H](CC(=O)O)C(=O)N[C@@H](CCCCN)C(=O)N[C@H](C(=O)N[C@@H](Cc1c[nH]cn1)C(=O)N[C@@H](CCC(N)=O)C(=O)N[C@@H](CCC(N)=O)C(=O)N[C@@H](CC(=O)O)C(=O)N[C@@H](Cc1ccccc1)C(=O)N[C@H](C(=O)N[C@@H](CC(N)=O)C(=O)N[C@@H](Cc1c[nH]c2ccccc12)C(=O)N[C@@H](CC(C)C)C(=O)N[C@@H](CC(C)C)C(=O)N[C@@H](C)C(=O)N[C@@H](CCC(N)=O)C(=O)N[C@@H](CCCCN)C(N)=O)C(C)C)[C@@H](C)CC` [AT170, [hGIP(5-30)NH2[S8K]-C16diacid/8]] (H-TFIK(C16 diacid)DYSIAMDKIHQQDFVNWLLAQK-NH2; N-terminus assumed): at human GIP receptor [1], the “Fold change of IC50 versus GIP(5-30)NH2” value is reported as 32.4. For the same compound, the Emax on human GIP receptor [2] worked out at 0%. Further, on human GIP receptor [3], the “Fold change HSA (2%)/Casein (0.1%)” value is listed as 2.2, the “Binding (+/−HSA) Fold” value was 2.2 and the Ki was determined as 1300 nM. For the same compound, the IC50 at human GIP receptor [3] (setting [7]) is 631 nM.
